Converted amounts (≈) assume the structure as drawn. The source made the active and inactive calls. The calls are words filed in the database; no cut-off is given here.
How the values were obtained:
Bacillus subtilis = test: Antibacterial activity against Bacillus subtilis assessed as growth inhibition after 24 hr by NCCLS broth micro-dilution method; format: functional
Escherichia coli = test: Antibacterial activity against Escherichia coli assessed as growth inhibition after 24 hr by NCCLS broth micro-dilution method; format: functional
Urease = Urease (Canavalia ensiformis, UniProt P07374); test: (§1) Inhibition of Canavalia ensiformis (jack bean) urease assessed as release of ammonia after 30 min by indophenol method
Sequence of Urease (P07374 whole entry): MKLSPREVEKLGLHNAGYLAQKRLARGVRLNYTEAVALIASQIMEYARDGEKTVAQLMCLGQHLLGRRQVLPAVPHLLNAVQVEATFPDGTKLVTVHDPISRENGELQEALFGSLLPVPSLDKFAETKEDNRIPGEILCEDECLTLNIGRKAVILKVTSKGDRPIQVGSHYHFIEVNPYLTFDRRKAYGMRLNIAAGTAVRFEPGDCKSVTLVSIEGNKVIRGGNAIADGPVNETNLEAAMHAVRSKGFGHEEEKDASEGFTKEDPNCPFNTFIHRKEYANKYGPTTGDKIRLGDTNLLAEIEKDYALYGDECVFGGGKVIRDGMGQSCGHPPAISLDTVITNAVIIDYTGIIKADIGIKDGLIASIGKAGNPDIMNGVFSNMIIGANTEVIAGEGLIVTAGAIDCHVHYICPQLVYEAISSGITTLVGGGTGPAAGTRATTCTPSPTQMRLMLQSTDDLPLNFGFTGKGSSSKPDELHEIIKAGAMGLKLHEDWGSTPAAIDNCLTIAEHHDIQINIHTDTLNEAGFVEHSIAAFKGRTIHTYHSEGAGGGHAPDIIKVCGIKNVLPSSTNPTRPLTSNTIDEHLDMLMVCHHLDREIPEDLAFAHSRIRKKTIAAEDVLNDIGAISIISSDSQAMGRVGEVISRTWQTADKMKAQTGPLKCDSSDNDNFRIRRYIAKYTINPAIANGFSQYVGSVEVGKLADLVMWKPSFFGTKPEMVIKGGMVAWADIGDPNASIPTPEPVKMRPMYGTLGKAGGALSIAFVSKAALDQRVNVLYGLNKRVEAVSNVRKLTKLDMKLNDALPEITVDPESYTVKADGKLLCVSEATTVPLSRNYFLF

Shigella flexneri = test: Antibacterial activity against Shigella flexneri assessed as growth inhibition after 24 hr by NCCLS broth micro-dilution method; format: functional
Staphylococcus aureus = test: Antibacterial activity against Staphylococcus aureus assessed as growth inhibition after 24 hr by NCCLS broth micro-dilution method; format: functional
Aspergillus = test: Antifungal activity against Aspergillus […] assessed as inhibition of fungal hyphae extension after 24 to 48 hr by agar well diffusion method; format: functional
Aspergillus flavus = test: Antifungal activity against Aspergillus flavus assessed as inhibition of fungal hyphae extension after 24 to 48 hr by agar well diffusion method; format: functional
Aspergillus niger = test: Antifungal activity against Aspergillus niger assessed as inhibition of fungal hyphae extension after 24 to 48 hr by agar well diffusion method; format: functional
[1] = molecular target: Urease (Canavalia ensiformis) (UniProt P07374); test: Ratio of thiourea Ki to compound Ki for Canavalia ensiformis (jack bean) urease
Sequence of Urease (Canavalia ensiformis) (P07374 whole entry, looked up): as the sequence (P07374 whole entry) above

[2] = molecular target: Urease (Canavalia ensiformis) (UniProt P07374); test: as §1

| Structure (SMILES) | MIC (Bacillus subtilis) | MIC (Escherichia coli) | Ki (Urease) | MIC (Shigella flexneri) | MIC (Staphylococcus aureus) | inhibition (Aspergillus) | inhibition (Aspergillus flavus) | inhibition zone (IZ) (Aspergillus niger) | inhibition zone (IZ) (Aspergillus) | inhibition zone (IZ) (Aspergillus flavus) | Ratio Ki [1] | inhibition (Aspergillus niger) | inhibition [2] |
| --- | --- | --- | --- | --- | --- | --- | --- | --- | --- | --- | --- | --- | --- |
| COc1ccc(C(=O)NC(=S)Nc2ccc(S(N)(=O)=O)cc2)c(OC)c1OC | 0.156 µg/mL (≈ 0.367 µM) | 0.313 µg/mL (≈ 0.736 µM) | 1.34 µM | 0.313 µg/mL (≈ 0.736 µM) | 0.156 µg/mL (≈ 0.367 µM) |  |  |  |  |  |  |  |  |
| NS(=O)(=O)c1ccc(NC(=S)NC(=O)c2cccc(Cl)c2)cc1 | 0.156 µg/mL (≈ 0.422 µM) | 0.156 µg/mL (≈ 0.422 µM) | 1.5 µM | 0.156 µg/mL (≈ 0.422 µM) | 0.156 µg/mL (≈ 0.422 µM) |  |  |  |  |  |  |  |  |
| NS(=O)(=O)c1ccc(NC(=S)NC(=O)c2ccc([N+](=O)[O-])cc2)cc1 | 0.156 µg/mL (≈ 0.41 µM) | 0.313 µg/mL (≈ 0.823 µM) | 7.5 µM | 0.313 µg/mL (≈ 0.823 µM) | 0.156 µg/mL (≈ 0.41 µM) |  |  |  |  |  |  |  |  |
| NS(=O)(=O)c1ccc(NC(=S)NC(=O)c2ccc(Cl)cc2Cl)cc1 | 0.313 µg/mL (≈ 0.774 µM) | 0.313 µg/mL (≈ 0.774 µM) | 1.91 µM | 0.313 µg/mL (≈ 0.774 µM) | 0.313 µg/mL (≈ 0.774 µM) | inactive | inactive | 0.8 mm |  |  |  |  |  |
| Cc1cccc(C(=O)NC(=S)Nc2ccc(S(N)(=O)=O)cc2)c1 | 0.313 µg/mL (≈ 0.896 µM) | 1.25 µg/mL (≈ 3.58 µM) | 0.89 µM | 0.313 µg/mL (≈ 0.896 µM) | 0.625 µg/mL (≈ 1.79 µM) |  |  |  |  |  |  |  |  |
| CCC(CC(=O)NC(=S)Nc1ccc(S(N)(=O)=O)cc1)c1ccccc1 (stereo not drawn) | 0.313 µg/mL (≈ 0.799 µM) | 1.25 µg/mL (≈ 3.19 µM) | 1.23 µM | 0.313 µg/mL (≈ 0.799 µM) | 0.625 µg/mL (≈ 1.6 µM) |  |  |  |  |  |  |  |  |
| NS(=O)(=O)c1ccc(NC(=S)NC(=O)Cc2ccccc2)cc1 | 0.313 µg/mL (≈ 0.896 µM) | 0.313 µg/mL (≈ 0.896 µM) | 1.6 µM | 0.313 µg/mL (≈ 0.896 µM) | 0.313 µg/mL (≈ 0.896 µM) |  |  |  |  |  |  |  |  |
| NC(N)=S [THIOUREA] |  |  | 23 µM |  |  |  |  |  |  |  |  |  |  |
| CN(C/C=C/C#CC(C)(C)C)Cc1cccc2ccccc12 [TERBINAFINE] |  |  |  |  |  |  |  | 5.3 mm | 5.2 mm | 5.7 mm |  |  |  |
| NS(=O)(=O)c1ccc(NC(=S)NC(=O)c2cc([N+](=O)[O-])ccc2Cl)cc1 | 0.156 µg/mL (≈ 0.376 µM) | 0.313 µg/mL (≈ 0.754 µM) | 0.44 µM | 0.313 µg/mL (≈ 0.754 µM) | 0.156 µg/mL (≈ 0.376 µM) | inactive |  | 1.6 mm |  | 2.1 mm | 50 |  |  |
| COc1cccc(C(=O)NC(=S)Nc2ccc(S(N)(=O)=O)cc2)c1OC | 0.313 µg/mL (≈ 0.791 µM) | 0.313 µg/mL (≈ 0.791 µM) | 0.82 µM | 0.156 µg/mL (≈ 0.394 µM) | 0.313 µg/mL (≈ 0.791 µM) |  | inactive |  | 0.9 mm |  |  | inactive |  |
| NS(=O)(=O)c1ccc(NC(=S)NC(=O)c2ccco2)cc1 | 0.625 µg/mL (≈ 1.92 µM) | 0.313 µg/mL (≈ 0.962 µM) | 1.14 µM | 0.313 µg/mL (≈ 0.962 µM) | 0.625 µg/mL (≈ 1.92 µM) |  |  |  |  |  |  |  |  |
| COc1cccc(C(=O)NC(=S)Nc2ccc(S(N)(=O)=O)cc2)c1 | 0.313 µg/mL (≈ 0.857 µM) | 0.313 µg/mL (≈ 0.857 µM) | 0.65 µM | 0.313 µg/mL (≈ 0.857 µM) | 0.313 µg/mL (≈ 0.857 µM) |  |  |  |  |  |  |  |  |
| COc1cc(OC)cc(C(=O)NC(=S)Nc2ccc(S(N)(=O)=O)cc2)c1 | 0.313 µg/mL (≈ 0.791 µM) | 0.313 µg/mL (≈ 0.791 µM) | 1.21 µM | 0.313 µg/mL (≈ 0.791 µM) | 0.313 µg/mL (≈ 0.791 µM) |  |  | 1.5 mm | 2.7 mm | 1.9 mm |  |  |  |
| Cc1ccc(C(=O)NC(=S)Nc2ccc(S(N)(=O)=O)cc2)cc1 | 0.313 µg/mL (≈ 0.896 µM) | 0.313 µg/mL (≈ 0.896 µM) | 4.32 µM | 0.156 µg/mL (≈ 0.446 µM) | 0.313 µg/mL (≈ 0.896 µM) |  |  |  |  |  |  |  |  |
| O=C(O)c1cn(C2CC2)c2cc(N3CCNCC3)c(F)cc2c1=O [CIPROFLOXACIN] | 0.625 µg/mL (≈ 1.89 µM) | 0.156 µg/mL (≈ 0.471 µM) |  | 0.313 µg/mL (≈ 0.945 µM) | 0.156 µg/mL (≈ 0.471 µM) |  |  |  |  |  |  |  |  |
| NS(=O)(=O)c1ccc(NC(=S)NC(=O)c2cccc([N+](=O)[O-])c2)cc1 | 0.313 µg/mL (≈ 0.823 µM) | 0.313 µg/mL (≈ 0.823 µM) | 0.45 µM | 0.313 µg/mL (≈ 0.823 µM) | 0.313 µg/mL (≈ 0.823 µM) |  |  |  |  |  |  |  |  |
| NS(=O)(=O)c1ccc(NC(=S)NC(=O)c2ccc(Cl)cc2[N+](=O)[O-])cc1 | 0.156 µg/mL (≈ 0.376 µM) | 0.156 µg/mL (≈ 0.376 µM) | 5.59 µM | 0.156 µg/mL (≈ 0.376 µM) | 0.156 µg/mL (≈ 0.376 µM) |  |  |  |  |  |  |  |  |
| NS(=O)(=O)c1ccc(NC(=S)NC(=O)c2cccc(F)c2)cc1 | 0.313 µg/mL (≈ 0.886 µM) | 0.313 µg/mL (≈ 0.886 µM) | 1.49 µM | 0.156 µg/mL (≈ 0.441 µM) | 0.313 µg/mL (≈ 0.886 µM) | inactive |  | 2.4 mm |  | 2.8 mm |  |  |  |
| NS(=O)(=O)c1ccc(NC(=S)NC(=O)c2ccc(Cl)cc2)cc1 | 0.156 µg/mL (≈ 0.422 µM) | 0.313 µg/mL (≈ 0.846 µM) | 0.2 µM | 0.313 µg/mL (≈ 0.846 µM) | 0.156 µg/mL (≈ 0.422 µM) |  |  |  |  |  | 100 |  |  |
| Cc1ccccc1C(=O)NC(=S)Nc1ccc(S(N)(=O)=O)cc1 | 0.625 µg/mL (≈ 1.79 µM) | 0.313 µg/mL (≈ 0.896 µM) |  | 0.313 µg/mL (≈ 0.896 µM) | 0.625 µg/mL (≈ 1.79 µM) |  |  |  |  |  |  |  | 53% |
| CCCCCCCCCCCC(=O)NC(=S)Nc1ccc(S(N)(=O)=O)cc1 | 0.313 µg/mL (≈ 0.757 µM) | 0.313 µg/mL (≈ 0.757 µM) | 1.3 µM | 0.313 µg/mL (≈ 0.757 µM) | 0.313 µg/mL (≈ 0.757 µM) |  |  | 4.6 mm | 4.9 mm | 5.1 mm |  |  |  |
